Structures are written as SMILES.

The subject of this experiment is ΔG/SEAP/HCV E1E2. The experiment in a line: Effect of test substance on cell infection with HCV pseudotype virus (SEAP reporter assay in HepG2 cells). The conditions noted are these: Hepatitis C virus. The format is cell-based.
With `COc1cc(OC)cc(-c2nn(-c3cc(NCC(CO)CO)ccc3C(F)(F)F)c(=O)c3c2CCN3CCO)c1` [Example 1-43, 4-(3,5-dimethoxy-phenyl)-1-(2-hydroxy-ethyl)-6-[5-(3-hydroxy-2-hydroxymethyl-propylamino)-2-trifluoromethyl-phenyl]-1,2,3,6-tetrahydro-pyrrolo[2,3-d]pyridazin-7-one], the IC50 (commonly the concentration needed to halve the response being measured) is under 100 nM. The molecule `Cc1cc(C)cc(-c2nn(-c3cc(N4CC[C@H](O)C4)ccc3C(F)(F)F)c(=O)c3c2CCN3)c1` [Example 11, 4-(3,5-dimethyl-phenyl)-6-[5-((S)-3-hydroxy-pyrrolidin-1-yl)-2-trifluoromethyl-phenyl]-1,2,3,6-tetrahydro-pyrrolo[2,3-d]pyridazin-7-one] yielded an IC50 of under 100 nM.

In turn, `Cc1cc(-c2cnco2)cc(-c2nn(-c3cc(N4CC[C@H](O)C4)ccc3C(F)(F)F)c(=O)c3c2CCC3)c1` [Example 2, 2-[5-((S)-3-hydroxy-pyrrolidin-1-yl)-2-trifluoromethyl-phenyl]-4-(3-methyl-5-oxazol-5-yl-phenyl)-2,5,6,7-tetrahydro-cyclopenta[d]pyridazin-1-one] returned an IC50 of under 100 nM. Molecule `O=c1c2c(c(-c3ccccc3F)nn1-c1cc(N3CC[C@H](O)C3)ccc1C(F)(F)F)CCC2` [Example 105, 4-(2-fluoro-phenyl)-2-[5-((S)-3-hydroxy-pyrrolidin-1-yl)-2-trifluoromethyl-phenyl]-2,5,6,7-tetrahydro-cyclopenta[d]pyridazin-1-one] displayed an IC50 of 100 to 10000 nM. Consider `COC(=O)CCNc1ccc(C(F)(F)F)c(-n2nc(-c3cc(OC)cc(OC)c3)c3c(c2=O)NCC3)c1` [Example 47, 3-{3-[4-(3,5-dimethoxy-phenyl)-7-oxo-1,2,3,7-tetrahydro-pyrrolo[2,3-d]pyridazin-6-yl]-4-trifluoromethyl-phenylamino}-propionic acid methyl ester], for which the IC50 is under 100 nM.

With `Cc1ccc(-c2nn(-c3cc(N4CC[C@H](O)C4)ccc3C(F)(F)F)c(=O)c3c2CCC3)cc1` [Example 114, 2-[5-((S)-3-hydroxy-pyrrolidin-1-yl)-2-trifluoromethyl-phenyl]-4-p-tolyl-2,5,6,7-tetrahydro-cyclopenta[d]pyridazin-1-one], the IC50 is under 100 nM. The molecule `COc1cc(OC)cc(-c2nn(-c3cc(N4CC[C@H](O)C4)ccc3C(F)(F)F)c(=O)c3c2SCC3)c1` [Example 1-37, 7-(3,5-dimethoxy-phenyl)-5-[5-((S)-3-hydroxy-pyrrolidin-1-yl)-2-trifluoromethyl-phenyl]-3,5-dihydro-2H-thieno[2,3-d]pyridazin-4-one] showed an IC50 of under 100 nM. Take `Cc1cc(-c2nn(-c3cc(N4CC(CO)C4)ccc3C(F)(F)F)c(=O)c3c2CCN3CCO)ccc1F` [Example 1-23, 4-(4-fluoro-3-methyl-phenyl)-1-(2-hydroxy-ethyl)-6-[5-(3-hydroxymethyl-azetidin-1-yl)-2-trifluoromethylphenyl]-1,2,3,6-tetrahydro-pyrrolo[2,3-d]pyridazin-7-one]: the IC50 is under 100 nM. As to `CN(C)c1ccc(-c2nn(-c3cc(N4CC[C@H](O)C4)ccc3C(F)(F)F)c(=O)c3c2CCC3)cc1` [Example 112, 4-(4-dimethylamino-phenyl)-2-[5-((S)-3-hydroxy-pyrrolidin-1-yl)-2-trifluoromethyl-phenyl]-2,5,6,7-tetrahydro-cyclopenta[d]pyridazin-1-one], the IC50 is under 100 nM. The result for `COc1cc(OC)cc(-c2nn(-c3cc(N4CCCC4=O)ccc3C(F)(F)F)c(=O)c3c2CCC3)c1` [Example 150, 4-(3,5-dimethoxy-phenyl)-2-[5-(2-oxo-pyrrolidin-1-yl)-2-trifluoromethyl-phenyl]-2,5,6,7-tetrahydro-cyclopenta[d]pyridazin-1-one] reads under 100 nM. Next, `CCCNc1ccc(C(F)(F)F)c(-n2nc(-c3cc(OC)cc(OC)c3)c3c(c2=O)CCC3)c1` [Example 100, 4-(3,5-dimethoxy-phenyl)-2-(5-propylamino-2-trifluoromethyl-phenyl)-2,5,6,7-tetrahydro-cyclopenta[d]pyridazin-1-one]: under 100 nM; `COc1cc(OC)cc(-c2nn(-c3cc(NC4CC4)ccc3C(F)(F)F)c(=O)c3c2CCC3)c1` [Example 140, 2-(5-cyclopropylamino-2-trifluoromethyl-phenyl)-4-(3,5-dimethoxy-phenyl)-2,5,6,7-tetrahydro-cyclopenta[d]pyridazin-1-one]: under 100 nM. The result for `NC(=O)c1cccc(-c2nn(-c3cc(N4CC[C@H](O)C4)ccc3C(F)(F)F)c(=O)c3c2CCC3)c1` [Example 98, 3-{3-[5-((S)-3-hydroxy-pyrrolidin-1-yl)-2-trifluoromethyl-phenyl]-4-oxo-4,5,6,7-tetrahydro-3H-cyclopenta[d]pyridazin-1-yl}-benzamide] reads 100 to 10000 nM; that for `COc1cc(OC)cc(-c2nn(-c3cc(Nc4ccccc4)ccc3C(F)(F)F)c(=O)c3c2CCC3)c1` [Example 134, 4-(3,5-dimethoxy-phenyl)-2-(5-phenylamino-2-trifluoromethyl-phenyl)-2,5,6,7-tetrahydro-cyclopenta[d]pyridazin-1-one], 100 to 10000 nM. `COc1cc(OC)cc(-c2nn(-c3ccccc3C(F)(F)F)c(=O)c3c2CCN3)c1` [Example 32, 4-(3,5-dimethoxy-phenyl)-6-(2-trifluoromethylphenyl)-1,2,3,6-tetrahydro-pyrrolo[2,3-d]pyridazin-7-one] registered an IC50 of 100 to 10000 nM. In the case of `COc1cc(OC)cc(-c2nn(-c3cc(NCCNC(=O)OC(C)(C)C)ccc3C(F)(F)F)c(=O)c3c2CCC3)c1` [Example 118, (2-{3-[4-(3,5-dimethoxy-phenyl)-1-oxo-1,5,6,7-tetrahydro-cyclopenta[d]pyridazin-2-yl]-4-trifluoromethyl-phenylamino}-ethyl)-carbamic acid tert-butyl ester], the IC50 is under 100 nM. For `COC(=O)CN1CCc2c(-c3cc(OC)cc(OC)c3)nn(-c3cc(N4CC[C@H](O)C4)ccc3C(F)(F)F)c(=O)c21` [Example 26, {4-(3,5-dimethoxy-phenyl)-6-[5-((S)-3-hydroxy-pyrrolidin-1-yl)-2-trifluoromethyl-phenyl]-7-oxo-2,3,6,7-tetrahydro-pyrrolo[2,3-d]pyridazin-1-yl}-acetic acid methyl ester], the half-maximal inhibitory concentration (IC50) is under 100 nM. On to `NC(=O)c1ccc(-c2nn(-c3cc(N4CC[C@H](O)C4)ccc3C(F)(F)F)c(=O)c3c2CCC3)cc1` [Example 99, 4-{3-[5-((S)-3-hydroxy-pyrrolidin-1-yl)-2-trifluoromethyl-phenyl]-4-oxo-4,5,6,7-tetrahydro-3H-cyclopenta[d]pyridazin-1-yl}-benzamide], for which the IC50 lay in the range of 100 to 10000 nM. In turn, `COc1cc(OC)cc(-c2nn(-c3cc(N4CC[C@H](O)C4)ccc3C(F)(F)F)c(=O)c3c2CCN3C)c1` [Example 54, 4-(3,5-dimethoxy-phenyl)-6-[5-((S)-3-hydroxy-pyrrolidin-1-yl)-2-trifluoromethyl-phenyl]-1-methyl-1,2,3,6-tetrahydro-pyrrolo[2,3-d]pyridazin-7-one] returned an IC50 of under 100 nM. In the case of `COc1cc(OC)cc(-c2nn(-c3c(Cl)cccc3Cl)c(=O)c3c2CCC3)c1` [Example 87, 2-(2,6-dichloro-phenyl)-4-(3,5-dimethoxy-phenyl)-2,5,6,7-tetrahydro-cyclopenta[d]pyridazin-1-one], the IC50 was under 100 nM.
